ChEMBL document CHEMBL4266012, “Identification of Quinoline-Based RIP2 Kinase Inhibitors with an Improved Therapeutic Index to the hERG Ion Channel” (ACS Med Chem Lett, 2018)
One block for each molecule: values may come before it.

How the values were obtained:
[1] = Cardiotoxicity in arterially perfused rabbit cardiac left ventricular wedge assessed as change in isometric contractile force at 10 uM by electrophysiology assay (reference value: 0%); assay type: toxicity, tissue-based, Oryctolagus cuniculus, Heart left ventricle
[2] = Cardiotoxicity in arterially perfused rabbit cardiac left ventricular wedge assessed as change in isometric contractile force at 3 uM by electrophysiology assay (reference value: 0%); assay type: toxicity, tissue-based, Oryctolagus cuniculus, Heart left ventricle
[3] = Cardiotoxicity in arterially perfused rabbit cardiac left ventricular wedge assessed as change in isometric contractile force at 1 uM by electrophysiology assay (reference value: 0%); assay type: toxicity, tissue-based, Oryctolagus cuniculus, Heart left ventricle
[4] = Cardiotoxicity in arterially perfused rabbit cardiac left ventricular wedge assessed as QRS interval time at 0.3 uM by electrophysiology assay (reference value: 33.9 +/- 2.7 milliseconds); assay type: toxicity, tissue-based, Oryctolagus cuniculus, Heart left ventricle
[5] = Volume of distribution at steady state in Beagle dog at 1.1 mg/kg, iv or 2 mg/kg, po by LC-MS/MS analysis; assay type: ADME, organism-based, Canis lupus familiaris; conditions: in vivo, read-out: Vdss
[6] = Cardiotoxicity in arterially perfused rabbit cardiac left ventricular wedge assessed as change in QT interval at 0.3 uM by electrophysiology assay; assay type: toxicity, tissue-based, Oryctolagus cuniculus, Heart left ventricle
[7] = Cardiotoxicity in arterially perfused rabbit cardiac left ventricular wedge assessed as Tp-e interval time at 10 uM by electrophysiology assay (reference value: 59.2 +/- 4.8 milliseconds); assay type: toxicity, tissue-based, Oryctolagus cuniculus, Heart left ventricle
[8] = Cardiotoxicity in arterially perfused rabbit cardiac left ventricular wedge assessed as QRS interval time at 10 uM by electrophysiology assay (reference value: 33.9 +/- 2.7 milliseconds); assay type: toxicity, tissue-based, Oryctolagus cuniculus, Heart left ventricle
[9] = Cardiotoxicity in arterially perfused rabbit cardiac left ventricular wedge assessed as Tp-e interval time at 1 uM by electrophysiology assay (reference value: 59.2 +/- 4.8 milliseconds); assay type: toxicity, tissue-based, Oryctolagus cuniculus, Heart left ventricle
[10] = Cmax in Sprague-Dawley rat at 2 mg/kg, po by LC-MS/MS analysis; assay type: ADME, organism-based; parameters: dose 2 mg/kg, route oral; conditions: in vivo
[11] = Fraction unbound in Beagle dog plasma; assay type: ADME, cell-free, Canis lupus familiaris
[12] = Cardiotoxicity in arterially perfused rabbit cardiac left ventricular wedge assessed as Tp-e interval by electrophysiology assay; assay type: toxicity, tissue-based, Oryctolagus cuniculus, Heart left ventricle
[13] = Oral bioavailability in Sprague-Dawley rat at 2 mg/kg by LC-MS/MS analysis; assay type: ADME, organism-based; conditions: in vivo
[14] = Cmax in Beagle dog at 2 mg/kg, po by LC-MS/MS analysis; assay type: ADME, organism-based, Canis lupus familiaris; parameters: dose 2 mg/kg, route oral; conditions: in vivo
[15] = Cardiotoxicity in arterially perfused rabbit cardiac left ventricular wedge assessed as change in QT interval at 3 uM by electrophysiology assay; assay type: toxicity, tissue-based, Oryctolagus cuniculus, Heart left ventricle
[16] = Volume of distribution at steady state in Sprague-Dawley rat at 1.1 mg/kg, iv or 2 mg/kg, po by LC-MS/MS analysis; assay type: ADME, organism-based; conditions: in vivo, read-out: Vdss
[17] = AUC in Beagle dog at 2 mg/kg, po by LC-MS/MS analysis; assay type: ADME, organism-based, Canis lupus familiaris; conditions: in vivo
[18] = Cardiotoxicity in arterially perfused rabbit cardiac left ventricular wedge assessed as Tp-e interval time at 3 uM by electrophysiology assay (reference value: 59.2 +/- 4.8 milliseconds); assay type: toxicity, tissue-based, Oryctolagus cuniculus, Heart left ventricle
[19] = Cardiotoxicity in arterially perfused rabbit cardiac left ventricular wedge assessed as prolongation of QT interval by electrophysiology assay; assay type: toxicity, tissue-based, Oryctolagus cuniculus, Heart left ventricle
[20] = Clearance in Beagle dog at 1.1 mg/kg, iv or 2 mg/kg, po by LC-MS/MS analysis; assay type: ADME, organism-based, Canis lupus familiaris; conditions: in vivo
[21] = AUC in Sprague-Dawley rat at 2 mg/kg, po by LC-MS/MS analysis; assay type: ADME, organism-based; conditions: in vivo
[22] = Fraction unbound in Sprague-Dawley rat plasma; assay type: ADME, cell-free
[23] = Clearance in Sprague-Dawley rat at 1.1 mg/kg, iv or 2 mg/kg, po by LC-MS/MS analysis; assay type: ADME, organism-based; conditions: in vivo
[24] = system: Rattus norvegicus; assay: Time at which plasma concentration stays above in vitro human whole blood IC50 in Crl:CD(SD) rat peritonitis model at 2 mg/kg, po; assay type: ADME, organism-based; conditions: in vivo
[25] = Cardiotoxicity in arterially perfused rabbit cardiac left ventricular wedge assessed as Tp-e interval time at 0.3 uM by electrophysiology assay (reference value: 59.2 +/- 4.8 milliseconds); assay type: toxicity, tissue-based, Oryctolagus cuniculus, Heart left ventricle
[26] = Cardiotoxicity in arterially perfused rabbit cardiac left ventricular wedge assessed as QRS interval time at 3 uM by electrophysiology assay (reference value: 33.9 +/- 2.7 milliseconds); assay type: toxicity, tissue-based, Oryctolagus cuniculus, Heart left ventricle
[27] = Oral bioavailability in Beagle dog at 2 mg/kg by LC-MS/MS analysis; assay type: ADME, organism-based, Canis lupus familiaris; conditions: in vivo
[28] = Cardiotoxicity in arterially perfused rabbit cardiac left ventricular wedge assessed as QRS interval time at 1 uM by electrophysiology assay (reference value: 33.9 +/- 2.7 milliseconds); assay type: toxicity, tissue-based, Oryctolagus cuniculus, Heart left ventricle
[29] = Cardiotoxicity in arterially perfused rabbit cardiac left ventricular wedge assessed as change in QT interval at 1 uM by electrophysiology assay; assay type: toxicity, tissue-based, Oryctolagus cuniculus, Heart left ventricle
[30] = Half life in Beagle dog at 1.1 mg/kg, iv by LC-MS/MS analysis; assay type: ADME, organism-based, Canis lupus familiaris; conditions: in vivo
[31] = Half life in Sprague-Dawley rat at 1.1 mg/kg, iv by LC-MS/MS analysis; assay type: ADME, organism-based; conditions: in vivo
[32] = Cardiotoxicity in arterially perfused rabbit cardiac left ventricular wedge assessed as change in QT interval at 10 uM by electrophysiology assay; assay type: toxicity, tissue-based, Oryctolagus cuniculus, Heart left ventricle
[33] = Cardiotoxicity in arterially perfused rabbit cardiac left ventricular wedge assessed as change in isometric contractile force at 0.3 uM by electrophysiology assay (reference value: 0%); assay type: toxicity, tissue-based, Oryctolagus cuniculus, Heart left ventricle
[34] = Half life in Sprague-Dawley rat at 1 mg/kg, iv by LC-MS/MS analysis; assay type: ADME, organism-based; conditions: in vivo
[35] = Clearance in Sprague-Dawley rat at 2 mg/kg, iv or 2 mg/kg, po by LC-MS/MS analysis; assay type: ADME, organism-based; conditions: in vivo
[36] = Half life in Sprague-Dawley rat at 2 mg/kg, iv by LC-MS/MS analysis; assay type: ADME, organism-based; conditions: in vivo
[37] = Volume of distribution at steady state in Sprague-Dawley rat at 2 mg/kg, iv or 2 mg/kg, po by LC-MS/MS analysis; assay type: ADME, organism-based; conditions: in vivo, read-out: Vdss

Vd [5]: 3.5 L/kg
Cmax [10]: 740 ng/mL
fraction unbound [11]: 0.163
bioavailability [13]: 85%
Cmax [14]: 330 ng/mL
Vd [16]: 1.1 L/kg
AUC [17]: 1900 ng·h/mL
clearance [20]: 20 mL/min/kg
AUC [21]: 2400 ng·h/mL
fraction unbound [22]: 0.055
clearance [23]: 12 mL/min/kg
Time [24]: 24 h
bioavailability [27]: 96%
half-life [30]: 2.5 h
half-life [31]: 3.1 h
SMILES: COc1cc2nccc(Nc3n[nH]c(C)c3C)c2cc1S(=O)(=O)C(C)(C)C
Activity [1]: -28%
Activity [2]: -22.6%
Activity [3]: -17.3%
Time [4]: 34.9 ms
Activity [6]: 2%
Time [7]: 77 ms
Time [8]: 36.3 ms
Time [9]: 67.9 ms
Activity [12]: Dose-dependent effect
Activity [15]: 6.4%
Time [18]: 73.3 ms
Activity [19]: Dose-dependent effect
Time [25]: 64.2 ms
Time [26]: 35.2 ms
Time [28]: 35.4 ms
Activity [29]: 3.6%
Activity [32]: 9.3%
Activity [33]: -9.9%

half-life [34]: 7 h
fraction unbound [22]: 0.026
Time [24]: 4 h
SMILES: CC(C)(C)S(=O)(=O)c1ccc2nccc(Nc3n[nH]c4ccc(F)cc34)c2c1

Cmax [10]: 990 ng/mL
bioavailability [13]: 82%
AUC [21]: 3800 ng·h/mL
fraction unbound [22]: 0.112
clearance [35]: 12 mL/min/kg
half-life [36]: 4.2 h
Vd [37]: 2.1 L/kg
SMILES: Cc1[nH]nc(Nc2ccnc3ccc(S(=O)(=O)C(C)(C)C)cc23)c1C
